What was measured:
[1] = test system: Leishmania infantum; test: Antileishmanial activity against luciferase expressing intracellular amastigote stage of Leishmania infantum infected in human THP1 cells assessed as parasite growth inhibition measured after 48 to 72 hrs by steady-glo luciferase assay; format: functional, organism-based; conditions: Leishmania infantum, THP-1; read-out: EC50
[2] = test system: Trypanosoma brucei; test: Antitrypanosomal activity against Trypanosoma brucei bloodstream form assessed as parasite growth inhibition incubated for 72 hrs by resazurin dye based assay; format: functional, organism-based; conditions: Trypanosoma brucei, 72 h; read-out: EC50
[3] = Cytotoxicity against human THP1 cells by MTT assay; format: cell-based, THP-1
[4] = Selectivity index, ratio of CC50 for human THP1 cells to EC50 for luciferase expressing intracellular amastigote stage of Leishmania infantum infected in human THP1 cells; format: toxicity, cell-based; conditions: read-out: Ratio CC50/EC50
[5] = target: hERG (KCNH2) (Homo sapiens, UniProt Q12809); test: Inhibition of human ERG at 10 uM incubated for 2 hrs by fluorescence polarization assay relative to control
[6] = target: T1, CYP1A2 (Homo sapiens, UniProt P05177); test: Inhibition of human microsomal CYP1A2 expressed in baculovirus infected insect cells at 10 uM using luciferin-1A2 as substrate preincubated with enzyme/substrate mixture for 30 mins followed by further incubation with NADPH for 30 mins by CYP450 luciferase Glo assay relative to control; format: ADME; conditions: probe luciferin-1A2
T1 sequence (P05177 whole entry): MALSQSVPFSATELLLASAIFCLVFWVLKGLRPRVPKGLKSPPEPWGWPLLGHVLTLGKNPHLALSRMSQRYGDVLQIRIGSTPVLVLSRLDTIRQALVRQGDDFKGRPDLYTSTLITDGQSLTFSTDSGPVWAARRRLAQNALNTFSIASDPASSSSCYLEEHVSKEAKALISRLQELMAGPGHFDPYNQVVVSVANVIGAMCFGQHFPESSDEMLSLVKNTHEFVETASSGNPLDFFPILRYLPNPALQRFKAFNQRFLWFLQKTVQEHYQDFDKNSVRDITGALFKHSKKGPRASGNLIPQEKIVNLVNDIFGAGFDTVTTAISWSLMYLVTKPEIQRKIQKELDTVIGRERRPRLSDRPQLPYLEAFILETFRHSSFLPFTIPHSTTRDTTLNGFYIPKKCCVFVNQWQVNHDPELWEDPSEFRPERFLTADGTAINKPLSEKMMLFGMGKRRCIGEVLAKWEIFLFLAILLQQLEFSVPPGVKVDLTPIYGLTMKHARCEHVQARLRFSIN

[7] = target: CYP2C9 (Homo sapiens, UniProt P11712); test: Inhibition of human microsomal CYP2C9 expressed in baculovirus infected insect cells at 10 uM using luciferin-H as substrate preincubated with enzyme/substrate mixture for 30 mins followed by further incubation with NADPH for 30 mins by CYP450 luciferase Glo assay relative to control; format: ADME; conditions: probe luciferin-H
[8] = target: CYP2C19 (Homo sapiens, UniProt P33261); test: Inhibition of human microsomal CYP2C19 expressed in baculovirus infected insect cells at 10 uM using luciferin-H EGE as substrate preincubated with enzyme/substrate mixture for 30 mins followed by further incubation with NADPH for 30 mins by CYP450 luciferase Glo assay relative to control; format: ADME; conditions: probe luciferin-H EGE
[9] = target: CYP2D6 (Homo sapiens, UniProt P10635); test: Inhibition of human microsomal CYP2D6 expressed in baculovirus infected insect cells at 10 uM using luciferin-ME as substrate preincubated with enzyme/substrate mixture for 30 mins followed by further incubation with NADPH for 30 mins by CYP450 luciferase Glo assay relative to control; format: ADME; conditions: probe luciferin-ME
[10] = target: CYP3A4 (Homo sapiens, UniProt P08684); test: Inhibition of human microsomal CYP3A4 expressed in baculovirus infected insect cells at 10 uM using luciferin-IPA as substrate preincubated with enzyme/substrate mixture for 30 mins followed by further incubation with NADPH for 30 mins by CYP450 luciferase Glo assay relative to control; format: ADME; conditions: probe luciferin-IPA
[11] = Cytotoxicity against human A549 cells assessed as cell growth at […] incubated for 48 hrs by Celltiter-Glo luminescence assay relative to control; format: cell-based; parameters: dose or concentration left out as unconfirmed; conditions: read-out: Activity
[12] = test system: 786-0; test: Mitochondrial toxicity in human 786-0 cells at 10 uM incubated with compound for 6 hrs followed by incubation with MitoTracker Red chloromethyl-X-rosamine dye for 45 mins by imaging analysis; format: cell-based; conditions: 786-0, 6 h
[13] = Selectivity index, ratio of CC50 for human THP1 cells to EC50 for Trypanosoma brucei bloodstream form; format: toxicity; conditions: read-out: Ratio CC50/EC50

Sequence of hERG (KCNH2) (Q12809 whole entry): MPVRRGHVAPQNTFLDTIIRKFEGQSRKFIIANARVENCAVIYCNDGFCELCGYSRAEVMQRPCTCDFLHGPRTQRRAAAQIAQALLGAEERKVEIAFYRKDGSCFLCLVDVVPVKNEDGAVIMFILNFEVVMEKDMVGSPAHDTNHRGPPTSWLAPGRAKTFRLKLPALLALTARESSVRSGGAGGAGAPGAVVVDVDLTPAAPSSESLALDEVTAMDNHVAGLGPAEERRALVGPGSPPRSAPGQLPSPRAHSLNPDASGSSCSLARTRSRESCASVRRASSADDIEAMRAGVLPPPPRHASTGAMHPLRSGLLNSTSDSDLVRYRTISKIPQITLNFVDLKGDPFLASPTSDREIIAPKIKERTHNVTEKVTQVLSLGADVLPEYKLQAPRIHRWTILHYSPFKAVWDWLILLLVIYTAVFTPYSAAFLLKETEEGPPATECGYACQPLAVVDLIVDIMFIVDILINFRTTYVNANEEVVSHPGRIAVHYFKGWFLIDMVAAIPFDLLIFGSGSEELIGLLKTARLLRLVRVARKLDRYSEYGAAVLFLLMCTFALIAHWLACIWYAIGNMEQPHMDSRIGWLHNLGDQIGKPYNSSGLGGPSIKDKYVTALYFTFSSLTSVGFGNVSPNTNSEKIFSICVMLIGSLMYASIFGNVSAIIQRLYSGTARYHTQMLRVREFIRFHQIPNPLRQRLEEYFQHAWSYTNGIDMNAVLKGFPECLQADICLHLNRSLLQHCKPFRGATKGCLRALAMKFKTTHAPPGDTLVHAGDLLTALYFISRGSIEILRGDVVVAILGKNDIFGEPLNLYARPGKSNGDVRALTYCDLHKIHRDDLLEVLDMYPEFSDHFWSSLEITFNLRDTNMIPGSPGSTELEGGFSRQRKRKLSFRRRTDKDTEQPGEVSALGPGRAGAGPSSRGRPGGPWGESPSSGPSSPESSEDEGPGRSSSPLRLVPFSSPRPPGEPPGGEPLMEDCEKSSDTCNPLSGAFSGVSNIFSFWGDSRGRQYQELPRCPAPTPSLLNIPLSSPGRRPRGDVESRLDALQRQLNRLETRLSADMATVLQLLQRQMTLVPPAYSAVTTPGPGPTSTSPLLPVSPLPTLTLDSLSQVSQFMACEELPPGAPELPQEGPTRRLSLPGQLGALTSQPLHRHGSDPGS
Sequence of CYP2C19 (P33261 whole entry): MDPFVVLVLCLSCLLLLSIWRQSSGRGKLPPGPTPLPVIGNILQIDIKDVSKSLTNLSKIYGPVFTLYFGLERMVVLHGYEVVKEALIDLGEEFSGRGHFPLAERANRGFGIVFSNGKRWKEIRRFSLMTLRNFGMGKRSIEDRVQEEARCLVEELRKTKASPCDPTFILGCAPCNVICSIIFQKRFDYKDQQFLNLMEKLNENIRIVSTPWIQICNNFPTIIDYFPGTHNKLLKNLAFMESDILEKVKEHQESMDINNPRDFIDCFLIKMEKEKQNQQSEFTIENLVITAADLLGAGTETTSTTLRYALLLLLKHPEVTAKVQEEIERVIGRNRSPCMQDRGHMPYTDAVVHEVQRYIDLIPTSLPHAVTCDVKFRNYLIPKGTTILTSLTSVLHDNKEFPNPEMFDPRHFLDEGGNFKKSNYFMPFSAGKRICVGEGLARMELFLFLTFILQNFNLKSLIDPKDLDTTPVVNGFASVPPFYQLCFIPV
Sequence of CYP3A4 (P08684 whole entry): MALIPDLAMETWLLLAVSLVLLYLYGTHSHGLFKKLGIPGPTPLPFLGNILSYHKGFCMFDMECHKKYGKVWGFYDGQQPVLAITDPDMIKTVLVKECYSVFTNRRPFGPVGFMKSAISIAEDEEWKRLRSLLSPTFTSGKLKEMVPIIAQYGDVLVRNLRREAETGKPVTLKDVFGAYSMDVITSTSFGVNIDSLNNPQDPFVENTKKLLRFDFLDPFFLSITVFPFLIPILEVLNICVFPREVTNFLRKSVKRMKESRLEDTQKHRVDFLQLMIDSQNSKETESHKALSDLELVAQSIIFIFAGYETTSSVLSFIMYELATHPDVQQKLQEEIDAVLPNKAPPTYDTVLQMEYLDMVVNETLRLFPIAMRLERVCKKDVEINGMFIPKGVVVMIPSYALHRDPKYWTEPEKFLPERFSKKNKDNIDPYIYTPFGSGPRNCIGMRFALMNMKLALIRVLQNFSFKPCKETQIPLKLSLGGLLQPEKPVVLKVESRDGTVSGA
Sequence of CYP2D6 (P10635 whole entry): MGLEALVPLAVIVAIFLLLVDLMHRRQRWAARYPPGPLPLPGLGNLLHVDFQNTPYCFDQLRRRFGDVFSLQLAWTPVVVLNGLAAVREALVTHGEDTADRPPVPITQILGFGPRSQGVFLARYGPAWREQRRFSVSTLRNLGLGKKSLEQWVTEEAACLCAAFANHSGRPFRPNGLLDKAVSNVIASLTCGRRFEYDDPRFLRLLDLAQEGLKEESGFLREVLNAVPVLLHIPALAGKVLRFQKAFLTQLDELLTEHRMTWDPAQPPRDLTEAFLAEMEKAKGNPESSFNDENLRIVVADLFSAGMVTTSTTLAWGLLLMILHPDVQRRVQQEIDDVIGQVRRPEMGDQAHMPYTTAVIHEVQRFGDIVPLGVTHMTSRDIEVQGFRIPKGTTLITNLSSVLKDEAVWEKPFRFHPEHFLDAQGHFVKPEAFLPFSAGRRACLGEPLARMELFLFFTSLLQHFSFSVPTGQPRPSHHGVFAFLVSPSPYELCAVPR
Sequence of CYP2C9 (P11712 whole entry): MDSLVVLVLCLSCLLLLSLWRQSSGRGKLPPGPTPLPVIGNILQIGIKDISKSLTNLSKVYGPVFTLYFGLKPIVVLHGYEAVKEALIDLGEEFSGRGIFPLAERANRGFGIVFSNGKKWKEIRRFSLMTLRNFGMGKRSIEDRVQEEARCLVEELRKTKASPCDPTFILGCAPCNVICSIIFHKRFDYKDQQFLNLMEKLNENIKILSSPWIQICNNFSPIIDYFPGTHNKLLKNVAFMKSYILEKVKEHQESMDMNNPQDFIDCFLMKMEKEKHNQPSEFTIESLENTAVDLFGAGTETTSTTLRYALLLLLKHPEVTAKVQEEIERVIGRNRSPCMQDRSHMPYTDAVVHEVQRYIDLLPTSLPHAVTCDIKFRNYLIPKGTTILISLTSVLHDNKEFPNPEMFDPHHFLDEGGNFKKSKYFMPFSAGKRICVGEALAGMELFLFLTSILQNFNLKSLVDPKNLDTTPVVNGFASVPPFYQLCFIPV

EC50 [2] [µM]	inhibition at 0.5 h, 10 µM [6] [%]	inhibition at 0.5 h, 10 µM [7] [%]	inhibition at 0.5 h, 10 µM [8] [%]	inhibition at 0.5 h, 10 µM [9] [%]	inhibition at 0.5 h, 10 µM [10] [%]	Compound	EC50 [1] [µM]	CC50 [3] [µM]	selectivity ratio [4]	inhibition at 2 h, 10 µM [5] [%]	viability at 48 h [11] [%]	Activity [12] [%]	selectivity ratio [13]
2.1	84.7	28.6	12	16.2	1.36	O=c1c(O)c(-c2csc3ccccc23)oc2ccc(Cl)cc12	2.7	12.5 to 25	5	-14	126	-21.98	
1.5	86.4	25.4	26	16.8	11.5	O=c1c(O)c(-c2csc3ccccc23)oc2ccc(F)cc12	6	25 to 50	4	-29.6	99.1	-23.6	
1.3	83.3	48.3	33.9	29.3	61.8	CCCCC(=O)Oc1c(-c2csc3ccccc23)oc2ccc(OC)cc2c1=O	2.4	12.5 to 25	5	1.12	12.4	0.75	
1.5	78	25.3	24.3	27.5	-6.12	O=c1c(O)c(-c2csc3ccccc23)oc2ccc(Br)cc12	2.7	25 to 50	9	-60.1	119	-22.7	
3	103	59.6	77.9	33.6	12.5	COc1ccc2c(=O)c(O)c(-c3cc(C)cs3)oc2c1		25 to 50		5.93	80.9	0.01	8
3.9	61.8	25.8	24.5	21.9	44.6	COc1ccc2oc(-c3cccc(-c4ccc5c(c4)OCO5)c3)c(O)c(=O)c2c1		25 to 50		0.34	30.5	-1.63	6
3.1	101	40.2	47.9	-0.42	18.7	O=c1c(O)c(-c2c[nH]c3ccccc23)oc2ccc(O)cc12		50 to 100		53.2	5.87	17.38	16
1.3	90.7	-229	69.6	30.8	42	COc1ccc2oc(-c3csc4ccccc34)c(OC(C)=O)c(=O)c2c1	2.1	12.5 to 25	6	-30	47.3	-27.27	
